Patent publication US20090291941A1, “Tyrosine Kinase Inhibitors” (priority 2005, published 2009)
pIC50: −log10 of the molar value.

Molecular target: T1, human c-Met (Homo sapiens, UniProt P08581)
T1 construct: Recombinant GST-tagged cytosolic domains of human c-Met; 6xHis; made in house; host or cells: baculovirus system; Sf9 or Sf21 insect cells
Test: In vitro c-Met kinase assay (homogeneous time-resolved fluorescence tyrosine kinase assay)
Assay type: biochemical
Settings: recombinant GST-tagged cytosolic domain of c-Met, 0.2 nM enzyme, 50 μM MgATP, HTRF readout
Description: Recombinant GST-tagged cytosolic domains of human c-Met and other receptor tyrosine kinases including mouse c-Met, human Ron, KDR, IGFR, EGFR, FGFR, Mer, TrkA and Tie2 are used to determine whether the compounds of the instant invention modulate the enzymatic activities of these kinases.
Soluble recombinant GST-tagged cytosolic domains of c-Met and other receptor tyrosine kinases are expressed in a baculovirus system (Pharmingen) according to a protocol recommended by the manufacturer. The c-DNA encoding each cytosolic domain is subcloned into a baculovirus expression vector (pGcGHLT-A, B or C, Pharmingen) containing an in frame 6× histidine tag and a GST tag. […] The protein concentrations of the fusion proteins are determined using Coomassie Plus Protein Assay (Pierce) with BSA as standard.
The kinase activities of c-Met and other kinases are measured using a modified version of the homogeneous time-resolved tyrosine kinase assay described by Park et al. (1999, Anal. Biochem. 269:94-104).
The procedure for determining the potency of a compound to inhibit c-Met kinase comprises the following steps: • 1. […] Read HTRF signals on a Victor reader (PerkinElmer) in HTRF mode after 60 min. • 6. IC50 is determined by fitting the observed relationship between compound concentration and HTRF signal with a 4-parameter logistic equation. […]

T1 sequence (P08581 956-1390 limits assumed): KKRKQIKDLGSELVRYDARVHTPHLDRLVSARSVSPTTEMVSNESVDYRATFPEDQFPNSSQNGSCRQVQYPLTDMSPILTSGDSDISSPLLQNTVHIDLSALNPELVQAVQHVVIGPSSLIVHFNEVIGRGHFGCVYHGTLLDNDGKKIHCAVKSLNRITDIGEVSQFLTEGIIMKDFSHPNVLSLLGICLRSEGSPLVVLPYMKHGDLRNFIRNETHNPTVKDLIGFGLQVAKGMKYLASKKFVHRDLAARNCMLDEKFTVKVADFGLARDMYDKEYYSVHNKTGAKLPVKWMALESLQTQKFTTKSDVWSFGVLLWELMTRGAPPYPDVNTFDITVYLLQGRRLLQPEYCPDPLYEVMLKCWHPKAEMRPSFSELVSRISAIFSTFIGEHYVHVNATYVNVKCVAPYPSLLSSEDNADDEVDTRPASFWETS

pIC50	SMILES
> 4.30	Nc1ccc2c(c1)C(=O)Nc1cc(-c3ccccc3)cnc1C=C2 [Compound 14, 8-amino-3-phenylpyrido[3,2-c][2]benzazocin-6(5H)-one]
> 4.30	Nc1ccc2c(c1)NC(=O)c1cc(-c3ccccc3)cnc1C=C2 [Compound 15, 8-amino-3-phenylpyrido[3,2-c][1]benzazocin-5(6H)-one]
